Tested on: 772245-204-R-J1-PDC complex spheroid growth
Test: Anticancer human tumor 772245-204-R-J1-PDC patient-derived rhabdomyosarcoma cell line growth inhibition [Asc]
Conditions: for IC50: curve of first compound; for viability, T/C: stronger effect = lower value
Summary of the method: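 Concentration series start at each agent's clinical Cmax, or at 10 microM when none is established, and drop in half-log steps; agents are applied alone or together to complex spheroids built with HUVEC and hMSC.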

[1] = second compound 0.1 µM, first compound 0.0316 µM
[2] = second compound 0.1 µM, first compound 0.1 µM
[3] = second compound 0.1 µM, first compound 0.316 µM
[4] = second compound 0.1 µM, first compound 1 µM
[5] = second compound 0.1 µM, first compound 3.16 µM
[6] = second compound 0.1 µM, first compound 10 µM
[7] = second compound 0.316 µM, first compound 0.0316 µM
[8] = second compound 0.316 µM, first compound 0.1 µM
[9] = second compound 0.316 µM, first compound 0.316 µM
[10] = second compound 0.316 µM, first compound 1 µM
[11] = second compound 0.316 µM, first compound 3.16 µM
[12] = second compound 0.316 µM, first compound 10 µM
[13] = second compound 1 µM, first compound 0.0316 µM
[14] = second compound 1 µM, first compound 0.1 µM
[15] = second compound 1 µM, first compound 0.316 µM
[16] = second compound 1 µM, first compound 1 µM
[17] = second compound 1 µM, first compound 3.16 µM
[18] = second compound 1 µM, first compound 10 µM
[19] = second compound 3.16 µM, first compound 0.0316 µM
[20] = second compound 3.16 µM, first compound 0.1 µM
[21] = second compound 3.16 µM, first compound 0.316 µM
[22] = second compound 3.16 µM, first compound 1 µM
[23] = second compound 3.16 µM, first compound 3.16 µM
[24] = second compound 3.16 µM, first compound 10 µM
[25] = second compound 10 µM, first compound 0.0316 µM
[26] = second compound 10 µM, first compound 0.1 µM
[27] = second compound 10 µM, first compound 0.316 µM
[28] = second compound 10 µM, first compound 1 µM
[29] = second compound 10 µM, first compound 3.16 µM
[30] = second compound 10 µM, first compound 10 µM
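Also: compound exposure lasted seven days.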
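For viability, T/C in this document: 100% = DMSO vehicle control viability.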

SMILES	IC50 (second compound 0.1 µM)	IC50 (second compound 0.316 µM)	IC50 (second compound 1 µM)	IC50 (second compound 3.16 µM)	IC50 (second compound 10 µM)	viability, T/C [1]	viability, T/C [2]	viability, T/C [3]	viability, T/C [4]	viability, T/C [5]	viability, T/C [6]	viability, T/C [7]	viability, T/C [8]	viability, T/C [9]	viability, T/C [10]	viability, T/C [11]	viability, T/C [12]	viability, T/C [13]	viability, T/C [14]	viability, T/C [15]	also measured
C#Cc1c(F)ccc2cc(O)cc(-c3ncc4c(N5CC6CCC(C5)N6)nc(OCC56CCCN5CC(F)C6)nc4c3F)c12 (stereo not given) + Cc1c(S(C)(=O)=O)c(-c2cc(F)cc(N3CCN(c4ccc(NS(=O)(=O)c5ccc(NC(CCN6CCC(C(=O)OCCCP(=O)(O)O)CC6)CSc6ccccc6)c(S(=O)(=O)C(F)(F)F)c5)cc4)CC3)c2)c(-c2ccc(Cl)cc2)n1C(C)C	9710 nM	2030 nM	3740 nM	< 31.6 nM	1030 nM	72.8%	93.2%	85.6%	71.6%	72.7%	49%	60.4%	66.2%	62.3%	56%	46.3%	38.2%	49.8%	55.4%	51.5%	viability, T/C [16]: 56.8%; viability, T/C [17]: 54.1%; viability, T/C [18]: 29.7%; viability, T/C [19]: 49.8%; viability, T/C [20]: 46.7%; viability, T/C [21]: 47.1%; viability, T/C [22]: 37%; viability, T/C [23]: 30.7%; viability, T/C [24]: 13.8%; viability, T/C [25]: 44%; viability, T/C [26]: 55.5%; viability, T/C [27]: 44%; viability, T/C [28]: 58.3%; viability, T/C [29]: 34%; viability, T/C [30]: 18.5%
C=C(F)C(=O)N1CCN(c2nc(OCC3CCCN3C)nc3c2CCN(c2cccc4cccc(Cl)c24)C3)CC1CC#N (stereo not given) + Cc1c(S(C)(=O)=O)c(-c2cc(F)cc(N3CCN(c4ccc(NS(=O)(=O)c5ccc(NC(CCN6CCC(C(=O)OCCCP(=O)(O)O)CC6)CSc6ccccc6)c(S(=O)(=O)C(F)(F)F)c5)cc4)CC3)c2)c(-c2ccc(Cl)cc2)n1C(C)C	1570 nM	772 nM	< 31.6 nM	< 31.6 nM	< 31.6 nM	79%	77.7%	72.6%	70.7%	18.1%	0.14%	60.4%	65.2%	52.3%	47.8%	3.54%	0.12%	40%	45.9%	35.4%	viability, T/C [16]: 30.9%; viability, T/C [17]: 2.95%; viability, T/C [18]: 0.1%; viability, T/C [19]: 35.7%; viability, T/C [20]: 39.7%; viability, T/C [21]: 45.7%; viability, T/C [22]: 20.1%; viability, T/C [23]: 1.47%; viability, T/C [24]: 0.11%; viability, T/C [25]: 43.3%; viability, T/C [26]: 39.4%; viability, T/C [27]: 37.3%; viability, T/C [28]: 17.6%; viability, T/C [29]: 1.02%; viability, T/C [30]: 0.18%

Reference: PubChem BioAssay AID1963433 (Molecular Pharmacology Branch, DTP, NCI, 2024)
